# From patent US10052320B2, “Substituted quinoxalines as FGFR kinase inhibitors” (ASTEX THERAPEUTICS LIMITED, priority 2011, dated 2018)
# Read-outs that look alike come from different tables or passages of the source.
# How the values were obtained:
# FGFR2 (h) = FGFR2 (h) (Homo sapiens, UniProt P21802); assay: FGFR2 (enzymatic assay), TR-FRET; type: biochemical; conditions: read-out: FGFR 2 pIC50 (converted)
# Procedure: In a final reaction volume of 30 μL, FGFR2 (h) (150 ng/ml) was incubated with 50 mM HEPES pH 7.5, 6 mM MnCl2, 1 mM DTT, 0.1 mM Na3VO4, 0.01% Triton-X-100, 500 nM Btn-Flt3 and 0.4 μM ATP in the presence of compound (1% DMSO final). […] Time-Resolved Fluorescence Resonance Energy Transfer (TR-FRET) signal (ex340 nm. Em 620 nm, em 655 nm) was measured afterwards and results are expressed in (Relative Fluorescence Units).
# FGFR3 (h) = FGFR3 (h) (Homo sapiens, UniProt P22607); assay: FGFR3 (enzymatic assay), TR-FRET; type: biochemical; conditions: read-out: FGFR 3 pIC50 (converted)
# Procedure: In a final reaction volume of 30 μL, FGFR3 (h) (40 ng/ml) was incubated with 50 mM HEPES pH 7.5, 6 mM MnCl2, 1 mM DTT, 0.1 mM Na3VO4, 0.01% Triton-X-100, 500 nM Btn-Flt3 and 25 μM ATP in the presence of compound (1% DMSO final). […] Time-Resolved Fluorescence Resonance Energy Transfer (TR-FRET) signal (ex340 nm. Em 620 nm, em 655 nm) was measured afterwards and results are expressed in RFU (Relative Fluorescence Units).
# FGFR4 (h) = FGFR4 (h) (Homo sapiens, UniProt P22455); assay: FGFR4 (enzymatic assay), TR-FRET; type: biochemical; conditions: read-out: FGFR 4 pIC50 (converted)
# Procedure: In a final reaction volume of 30 μL, FGFR4 (h) (60 ng/ml) was incubated with 50 mM HEPES pH 7.5, 6 mM MnCl2, 1 mM DTT, 0.1 mM Na3VO4, 0.01% Triton-X-100, 500 nM Btn-Flt3 and 5 μM ATP in the presence of compound (1% DMSO final). […] Time-Resolved Fluorescence Resonance Energy Transfer (TR-FRET) signal (ex340 nm. Em 620 nm, em 655 nm) was measured afterwards and results are expressed in RFU (Relative Fluorescence Units).
# [1] = molecular target: Ba/F3-FGFR1-transfected cells (Homo sapiens, UniProt P11362); assay: Ba/F3-FGFR1 (minus IL3) cellular proliferation assay, Alamar Blue; type: cell-based; conditions: for BAF3-FGFR 1 (MIN IL3) 384 well pIC50: minus IL3, 384 well; for BAF3-FGFR 1 (MIN IL3) 96 well pIC50: minus IL3, 96 well
# Procedure, shortened: (§1)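 Ba/F3 cells transfected with FGFR1 were incubated with compound in RPMI-1640/10% FBS for 24 h at 37 °C, 5% CO2. Alamar Blue (resazurin) was then added for 4 h and fluorescence was read at ex 540/em 590 nm. The counterscreen used the same conditions plus 10 ng/ml murine IL3.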
# [2] = tested on: Ba/F3-FGFR1-transfected cells in the presence of 10 ng/ml murine IL3; assay: Ba/F3-FGFR1 (plus IL3) cellular proliferation counterscreen, Alamar Blue; type: cell-based; conditions: Mus musculus
# Procedure, shortened: as §1
# [3] = molecular target: Ba/F3-KDR-transfected cells (Homo sapiens, UniProt P35968); assay: Ba/F3-KDR (minus IL3) cellular proliferation assay, Alamar Blue; type: cell-based
# Procedure, shortened: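 Ba/F3-KDR cells in RPMI-1640 with 10% FBS, 20000 (384-well) or 10000 (96-well) per well, given compound for 24 h at 37° C; Alamar Blue then added for 4 h and fluorescence read (ex 540/em 590 nm). Counterscreen run identically with 10 ng/ml murine IL3.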
# [4] = plus IL3, 384 well, read-out: BAF3-FGFR 1 (PLUS IL3) 384 well pIC50 (converted)
# [5] = plus IL3, 96 well, read-out: BAF3-FGFR 1 (PLUS IL3) 96 well pIC50 (converted)
# FGFR2 (h), sequence (P21802 22-821): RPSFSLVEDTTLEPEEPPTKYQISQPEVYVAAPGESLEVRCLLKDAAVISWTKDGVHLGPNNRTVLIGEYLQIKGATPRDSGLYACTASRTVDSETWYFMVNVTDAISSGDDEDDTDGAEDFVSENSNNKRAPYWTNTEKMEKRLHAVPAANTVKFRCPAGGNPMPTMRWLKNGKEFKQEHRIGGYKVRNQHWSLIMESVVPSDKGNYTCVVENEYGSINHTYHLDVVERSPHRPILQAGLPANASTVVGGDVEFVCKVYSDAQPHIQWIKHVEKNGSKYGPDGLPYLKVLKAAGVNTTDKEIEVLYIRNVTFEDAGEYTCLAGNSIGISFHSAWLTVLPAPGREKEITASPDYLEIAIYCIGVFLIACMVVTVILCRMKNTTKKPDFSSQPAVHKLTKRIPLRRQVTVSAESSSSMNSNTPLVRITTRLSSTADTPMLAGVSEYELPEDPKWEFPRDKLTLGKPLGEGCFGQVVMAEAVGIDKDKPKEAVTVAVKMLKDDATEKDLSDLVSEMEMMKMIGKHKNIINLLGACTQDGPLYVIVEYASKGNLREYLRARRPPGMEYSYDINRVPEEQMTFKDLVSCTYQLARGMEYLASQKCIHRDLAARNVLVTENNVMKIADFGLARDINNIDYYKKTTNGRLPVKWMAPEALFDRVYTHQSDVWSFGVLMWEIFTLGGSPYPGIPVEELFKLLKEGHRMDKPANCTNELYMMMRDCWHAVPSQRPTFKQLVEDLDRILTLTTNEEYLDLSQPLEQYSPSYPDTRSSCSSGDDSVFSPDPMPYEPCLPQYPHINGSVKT
# FGFR3 (h), sequence (P22607 23-806): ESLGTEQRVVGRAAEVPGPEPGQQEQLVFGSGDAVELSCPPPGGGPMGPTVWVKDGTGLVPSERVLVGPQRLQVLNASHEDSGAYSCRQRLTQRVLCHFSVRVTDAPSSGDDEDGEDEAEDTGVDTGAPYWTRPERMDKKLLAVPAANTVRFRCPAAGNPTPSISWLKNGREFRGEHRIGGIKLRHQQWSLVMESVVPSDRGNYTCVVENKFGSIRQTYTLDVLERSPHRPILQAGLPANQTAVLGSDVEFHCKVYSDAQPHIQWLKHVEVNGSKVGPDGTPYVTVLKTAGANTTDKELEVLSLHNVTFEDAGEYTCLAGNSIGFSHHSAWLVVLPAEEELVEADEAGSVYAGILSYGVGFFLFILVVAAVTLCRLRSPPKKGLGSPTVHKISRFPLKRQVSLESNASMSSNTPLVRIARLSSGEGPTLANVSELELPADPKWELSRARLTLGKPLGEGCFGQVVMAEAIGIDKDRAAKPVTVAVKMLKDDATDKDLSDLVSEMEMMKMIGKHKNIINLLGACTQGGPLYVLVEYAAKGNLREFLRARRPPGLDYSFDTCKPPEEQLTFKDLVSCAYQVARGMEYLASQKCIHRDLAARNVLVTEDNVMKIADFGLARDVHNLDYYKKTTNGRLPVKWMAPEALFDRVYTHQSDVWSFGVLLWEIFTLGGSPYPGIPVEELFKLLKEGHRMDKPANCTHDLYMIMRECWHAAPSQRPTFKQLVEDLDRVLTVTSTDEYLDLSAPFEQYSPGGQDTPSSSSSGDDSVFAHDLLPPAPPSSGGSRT
# Ba/F3-FGFR1-transfected cells, sequence (P11362 whole entry, change not shown): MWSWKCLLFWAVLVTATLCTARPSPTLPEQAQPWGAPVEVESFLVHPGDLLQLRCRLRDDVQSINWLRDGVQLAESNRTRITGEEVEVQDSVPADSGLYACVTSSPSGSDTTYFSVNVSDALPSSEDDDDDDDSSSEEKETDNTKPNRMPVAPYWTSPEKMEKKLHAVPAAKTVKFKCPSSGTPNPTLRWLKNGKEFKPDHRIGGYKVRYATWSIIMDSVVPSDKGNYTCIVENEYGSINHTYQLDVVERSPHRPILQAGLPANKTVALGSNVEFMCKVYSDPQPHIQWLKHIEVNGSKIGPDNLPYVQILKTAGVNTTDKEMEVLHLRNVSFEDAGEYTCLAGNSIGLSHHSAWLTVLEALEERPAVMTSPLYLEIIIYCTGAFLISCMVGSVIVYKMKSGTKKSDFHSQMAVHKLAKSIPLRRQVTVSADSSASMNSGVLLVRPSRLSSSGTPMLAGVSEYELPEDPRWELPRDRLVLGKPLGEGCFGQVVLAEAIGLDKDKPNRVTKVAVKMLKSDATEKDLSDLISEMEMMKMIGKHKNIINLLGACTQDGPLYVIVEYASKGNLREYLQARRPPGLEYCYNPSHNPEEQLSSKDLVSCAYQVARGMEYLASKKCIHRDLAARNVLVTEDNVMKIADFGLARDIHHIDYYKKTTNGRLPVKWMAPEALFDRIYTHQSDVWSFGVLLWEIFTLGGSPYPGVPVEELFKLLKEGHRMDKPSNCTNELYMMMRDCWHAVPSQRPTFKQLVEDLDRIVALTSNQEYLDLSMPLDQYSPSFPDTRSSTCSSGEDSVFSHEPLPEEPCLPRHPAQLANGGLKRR
# Ba/F3-KDR-transfected cells, sequence (P35968 whole entry, change not shown): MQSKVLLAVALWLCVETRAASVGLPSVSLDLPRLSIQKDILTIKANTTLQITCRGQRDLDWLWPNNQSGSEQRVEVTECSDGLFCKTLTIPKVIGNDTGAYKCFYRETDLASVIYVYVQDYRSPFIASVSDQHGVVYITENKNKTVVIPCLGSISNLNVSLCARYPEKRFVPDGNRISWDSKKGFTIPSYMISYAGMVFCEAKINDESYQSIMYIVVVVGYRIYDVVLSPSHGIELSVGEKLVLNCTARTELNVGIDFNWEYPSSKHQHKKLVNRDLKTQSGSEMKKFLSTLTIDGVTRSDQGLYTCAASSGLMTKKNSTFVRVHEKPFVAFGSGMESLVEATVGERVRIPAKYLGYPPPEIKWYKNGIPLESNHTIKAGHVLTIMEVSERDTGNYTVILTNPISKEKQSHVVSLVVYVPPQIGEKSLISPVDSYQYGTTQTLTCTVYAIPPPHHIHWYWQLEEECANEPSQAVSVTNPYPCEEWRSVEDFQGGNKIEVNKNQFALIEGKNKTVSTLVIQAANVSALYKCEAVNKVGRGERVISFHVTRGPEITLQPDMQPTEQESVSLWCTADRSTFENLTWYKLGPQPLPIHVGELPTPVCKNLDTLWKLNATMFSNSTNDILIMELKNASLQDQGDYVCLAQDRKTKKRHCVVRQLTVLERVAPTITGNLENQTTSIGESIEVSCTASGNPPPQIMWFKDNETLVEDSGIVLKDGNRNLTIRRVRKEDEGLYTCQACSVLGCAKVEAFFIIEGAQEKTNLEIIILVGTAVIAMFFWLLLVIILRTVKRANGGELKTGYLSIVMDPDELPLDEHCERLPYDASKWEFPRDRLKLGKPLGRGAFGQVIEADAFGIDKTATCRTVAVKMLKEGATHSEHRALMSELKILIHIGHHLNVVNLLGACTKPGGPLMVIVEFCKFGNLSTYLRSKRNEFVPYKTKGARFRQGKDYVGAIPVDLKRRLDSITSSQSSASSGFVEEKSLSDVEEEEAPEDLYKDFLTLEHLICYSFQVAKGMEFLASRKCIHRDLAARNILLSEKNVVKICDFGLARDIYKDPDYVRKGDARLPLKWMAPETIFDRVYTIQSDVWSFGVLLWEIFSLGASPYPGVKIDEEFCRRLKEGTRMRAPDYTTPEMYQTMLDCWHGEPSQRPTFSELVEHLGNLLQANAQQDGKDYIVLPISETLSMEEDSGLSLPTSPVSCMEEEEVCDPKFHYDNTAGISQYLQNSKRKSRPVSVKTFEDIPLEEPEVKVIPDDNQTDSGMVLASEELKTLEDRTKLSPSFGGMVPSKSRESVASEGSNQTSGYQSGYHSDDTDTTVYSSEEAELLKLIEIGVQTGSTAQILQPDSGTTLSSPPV
# FGFR4 (h), sequence (P22455 22-802): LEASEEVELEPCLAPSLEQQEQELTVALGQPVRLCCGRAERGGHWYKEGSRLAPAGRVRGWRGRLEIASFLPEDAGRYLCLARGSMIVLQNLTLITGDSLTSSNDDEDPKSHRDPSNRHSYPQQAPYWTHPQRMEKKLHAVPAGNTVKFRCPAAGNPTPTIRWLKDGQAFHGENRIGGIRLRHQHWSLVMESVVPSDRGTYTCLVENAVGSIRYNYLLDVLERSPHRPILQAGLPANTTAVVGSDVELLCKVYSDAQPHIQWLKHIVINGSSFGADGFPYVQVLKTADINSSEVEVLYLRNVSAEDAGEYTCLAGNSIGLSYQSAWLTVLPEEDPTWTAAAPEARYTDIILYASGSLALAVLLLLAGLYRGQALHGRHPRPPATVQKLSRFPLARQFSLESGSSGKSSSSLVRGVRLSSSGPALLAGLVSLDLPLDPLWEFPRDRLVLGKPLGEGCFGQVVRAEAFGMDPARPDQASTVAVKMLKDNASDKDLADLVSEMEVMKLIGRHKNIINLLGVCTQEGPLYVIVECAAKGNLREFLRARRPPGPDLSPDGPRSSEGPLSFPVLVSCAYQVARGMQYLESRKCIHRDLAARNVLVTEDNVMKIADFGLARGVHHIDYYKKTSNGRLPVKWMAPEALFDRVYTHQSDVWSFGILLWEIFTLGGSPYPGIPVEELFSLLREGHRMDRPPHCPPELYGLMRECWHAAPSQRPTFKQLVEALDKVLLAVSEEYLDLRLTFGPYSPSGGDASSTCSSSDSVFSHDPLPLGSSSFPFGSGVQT
Compound,IC50 (FGFR2 (h)),IC50 (FGFR3 (h)),IC50 (FGFR4 (h)),BAF3-FGFR 1 (MIN IL3) 384 well pIC50 [1],BAF3-KDR (MIN IL3) 384 well pIC50 ([3]; minus IL3),melting point,BAF3-FGFR 1 (MIN IL3) 96 well pIC50 [1],"BAF3-KDR (MIN IL3) 384 well pIC50 ([3]; minus IL3, 384 well)","IC50 [2, 4]","IC50 [2, 5]"
COc1cc(OC)cc(N(CCN2CCOCC2)c2ccc3ncc(-c4ccc(NC(=O)N5CCOCC5)nc4)nc3c2)c1 [Compound 35],26.3 nM,10 nM,67.6 nM,6.36,5.11,153 °C,,,> 10000 nM,
COc1cc(OC)cc(N(CC2CC2)c2ccc3ncc(-c4ccnc(N5CCN(C)CC5)c4)nc3c2)c1 [Compound 37],95.5 nM,36.3 nM,302 nM,5.16,,125 °C,5.4,<5,> 10000 nM,7590 nM
COc1cc(OC)cc(N(CCO)c2ccc3ncc(-n4cnc(CO)c4)nc3c2)c1 [Compound 38],25.7 nM,10.5 nM,93.3 nM,6.31,<5,215 °C,,,> 10000 nM,
COc1cc(OC)cc(N(CC2CC2)c2ccc3ncc(-c4c[nH]cn4)nc3c2)c1 [Compound 39],81.3 nM,29.5 nM,145 nM,<5,<5,166 °C,,,> 10000 nM,
COc1cc(OC)cc(N(CCCO)c2ccc3ncc(-c4ccnc(C(=O)N5CCOCC5)c4)nc3c2)c1 [Compound 43],13.2 nM,3.8 nM,45.7 nM,6.28,5.07,190 °C,,,> 10000 nM,
COc1cc(OC)cc(N(CCCNCC(=O)O)c2ccc3ncc(-c4ccnc(C(=O)NCCCCN)c4)nc3c2)c1 [Compound 44],11 nM,11.2 nM,51.3 nM,<5,<5,64 °C,,,> 10000 nM,
COc1cc(OC)cc(N(CCN2CCNCC2)c2ccc3ncc(-c4ccc(N)nc4)nc3c2)c1 [Compound 59],4.07 nM,9.12 nM,64.6 nM,6.22,5.66,111 °C,,,> 10000 nM,
COc1cc(OC)cc(N(CC2CC2)c2ccc3ncc(N4CCOCC4)nc3c2)c1 [Compound 63],741 nM,138 nM,2290 nM,<5,,114 °C,,<5,> 10000 nM,
COc1cc(OC)cc(N(CCN2CCN(C(C)=O)CC2)c2ccc3ncc(-c4ccc(N)nc4)nc3c2)c1 [Compound 68],33.9 nM,33.9 nM,282 nM,6.13,<5,167 °C,,,> 10000 nM,
COc1cc(OC)cc(N(CCN)c2ccc3ncc(-c4ccn(C)c4)nc3c2)c1 [Compound 79],2.63 nM,1.86 nM,8.51 nM,6.9,5.45,106 °C,,,> 10000 nM,
COc1cc(OC)cc(N(CCCO)c2ccc3ncc(-c4ccnc(-c5ccnc(Cl)c5)c4)nc3c2)c1 [Compound 133],115 nM,50.1 nM,> 1000 nM,<5,<5,172 °C,,,> 10000 nM,
COc1cc(OC)cc(N(CCCO)c2ccc3ncc(-c4ccnc(Cl)c4)nc3c2)c1 [Compound 136],25.7 nM,10.2 nM,97.7 nM,5.63,<5,175 °C,,,> 10000 nM,

# Further lines, with some results ahead:
IC50 (FGFR2 (h)),IC50 (FGFR3 (h)),IC50 (FGFR4 (h)),BAF3-FGFR 1 (MIN IL3) 384 well pIC50 [1],BAF3-KDR (MIN IL3) 384 well pIC50 ([3]; minus IL3),melting point,BAF3-FGFR 1 (MIN IL3) 96 well pIC50 [1],"BAF3-KDR (MIN IL3) 384 well pIC50 ([3]; minus IL3, 384 well)",Compound,"IC50 [2, 4]","IC50 [2, 5]"
115 nM,38.9 nM,234 nM,6.41,<5,149 °C,,,CO/N=C(\C)c1cnc2ccc(N(CCO)c3cc(OC)cc(OC)c3)cc2n1 [Compound 29],> 10000 nM,
331 nM,191 nM,2880 nM,<5,,92 °C,,<5,COc1cc(OC)cc(N(CC2CC2)c2ccc3ncc(N4CCN(C)CC4)nc3c2)c1 [Compound 64],> 10000 nM,
> 10000 nM,2340 nM,> 10000 nM,<5,<5,176 °C,<5,,COc1cc(OC)cc(N(CC2CC2)c2ccc3ncc(C(=O)N4CCC4)nc3c2)c1 [Compound 93],> 10000 nM,> 10000 nM
37.2 nM,52.5 nM,87.1 nM,5.62,<5,165 °C,,,CNc1ccc(-c2cnc3ccc(N(CCCNCC(F)(F)F)c4cc(OC)cc(OC)c4)cc3n2)cn1 [Compound 129],> 10000 nM,
8.32 nM,11.2 nM,151 nM,5.1,<5,161 °C,,,COc1cc(OC)cc(N(CCCO)c2ccc3ncc(-c4ccnc(C(=O)NCCCCCN)c4)nc3c2)c1 [Compound 130],> 10000 nM,
4.68 nM,5.89 nM,21.4 nM,6.44,5.37,155 °C,,,COc1cc(OC)cc(N(CCCNC(C)C)c2ccc3ncc(-c4ccnc(NC(=O)NC(C)C)c4)nc3c2)c1 [Compound 131],3980 nM,
